In US12721934B2, “Cationic nanodrug, preparation method therefor, and drug-loaded implantable medical device” (SHANGHAI MICROPORT MEDICAL (GROUP) CO., LTD., priority 2019, dated 2026):

Test system: Vascular smooth muscle cells (SMCs)
Assay: Cytotoxicity of the cationic substances (MTT)
Assay type: cell-based
Protocol: Vascular smooth muscle cells (SMCs) were collected and the cell concentration was determined using a hemocytometer. The cell concentration was adjusted to […] using a liquid cell culture medium. The cell suspension was dispensed on a 96-well plate ([…] cells in each well) and the wells were divided into groups (a control group and four test groups), four wells for each group. After the cells were cultivated for 24 hours under regular cell culture conditions, the culture medium was pipetted away. Each of the fresh culture media and culture media respectively containing the suspensions of non-drug loaded nanoparticles prepared in Example 14, Comparative Example 2 and Comparative Example 3 was added (the cationic substance in each of the three examples has a same concentration). After the cells were further cultivated for 24 hours, 50 μL of an MTT agent was dispensed into each well, and the cells were then incubated for 4 hours in a CO2 incubator. After that, the culture media were carefully pipetted away, and 150 μL of dimethyl sulfoxide was added to each well. The plate was then shaken gently to facilitate dissolution of formazan. Absorbance of each well at 490 nm was measured using a microplate reader, and cell survival rates were calculated according to: […]

Structure (SMILES) | Cytotoxicity (in words)
CCCCCCCCCCCC[N+](C)(C)CCCCCCCCCCCC.[Br-] [DMAB, didodecyldimethylammonium bromide] | serious cytotoxicity
CCCCCCCC/C=C\CCCCCCCC(=O)OCC(C[N+](C)(C)C)OC(=O)CCCCCCC/C=C\CCCCCCCC.[Cl-] (centres unmarked) [DOTAP, 1,2-dioleoyl-3-trimethylammonium-propane chloride] | does not show noticeable cytotoxicity
